{"source": "patent US12214079B2", "about": "“Micronized lipids” (MCAL Therapeutics Inc., priority 2021, dated 2025)", "key": {"[1]": {"test_system": "naive dogs", "experiment": "Non-GLP topical ocular dose range-finding toxicity and tolerability study (SPOTS scoring)", "type": "in vivo", "details": "up to 10 mg/mL OU BID for 48 hours", "protocol": "A non-GLP topical ocular administration dose range-finding pharmacology and toxicity study of MCAL-201 was conducted in naive dogs. The primary study objective was to assess the tolerability of topical ocular administration of MCAL-201 in dogs with a secondary objective to obtain data supporting pharmacological activity in healthy dogs.\nThe effects of vehicle and 0.1, 0.5, 1, 3 and 10 mg/mL MCAL-201 delivered as a 35 μL drop bilaterally QD (0.0035, 0.0175, 0.035, 0.105 and 0.35 mg/eye/day) were evaluated in Part I. The dosing regimen is summarized in 3.\n(§1) Scoring of the ocular surface and anterior segment of the eye was performed using the SPOTS system by a board-certified veterinary ophthalmologist. SPOTS was performed for each concentration evaluated. To measure TBUT, fluorescein was instilled in the eye and the eye was manually closed and then gently opened to simulate a blink. The time interval between the opening of the eye and the first sign of disruption of the uniform tear film, as indicated by breaks in the fluorescein was recorded in seconds. The procedure was repeated three times on both eyes, first right than left eye. After BID dosing with 10 mg/mL MCAL-201, SPOTS was also performed at 48 hours after the last dose."}, "[2]": {"experiment": "Isomeric stability (1,2-EPRG to 1,3-EPRG acyl migration), NMR analysis of isomeric content", "type": "physicochemical", "description": "FIG. 4 provides NMR (nuclear magnetic resonance) spectral analysis of 1,3-EPRG and 1,2-EPRG isomeric content (1.15 mol % 1,3-EPRG) of MCAL-201 after jet mill micronization.\nFIG. 5 provides NMR (nuclear magnetic resonance) spectral analysis of 1,3-EPRG and 1,2-EPRG isomeric content (0.0991 mol % 1,3-EPRG) of MCAL-201 after solid micronized MCAL-201suspension is stored at room temperature for 6 weeks.\nThis led to development of the delivery of solid MCAL-201 as a suspension of crystalline or amorphous micronized solid particle suspended in a water-based formulation isotonic with tear. Although MCAL-201 crystalline drug substance floated on phosphate buffered saline (PBS) it could be suspended following micronization to 1-10 micron particles which could be stably suspended in PBS with the aid of polysorbate 80 as a wetting agent and xanthan gum to adjust density and viscosity of the drug product."}, "[3]": {"test_system": "healthy dogs", "experiment": "Tear film break-up time (TBUT) by fluorescein after topical ocular administration", "type": "in vivo, dog", "details": "5 healthy adult dogs", "protocol": "as §1"}, "[4]": {"experiment": "General and physiochemical properties of MCAL-201 (solubility, hygroscopicity)", "type": "physicochemical", "protocol": "The general and physiochemical properties of MCAL-201 are: • 1,2-EPRG has a molecular weight of 611.05 g/mol • Empirical formula: C39H78O4 • Appearance: White powder • Particle size: 1-10 μm (post micronization) • Hygroscopicity: Low • Chirality: Racemic • Enantiomeric excess: 0 • Melting point: 57° C. • Solubility: Insoluble in water. Soluble in chloroform (40 mg/mL) and castor • oil (25 mg/mL)\nHowever, preparation of a water soluble cyclodextrin inclusion complex of MCAL-201 was used in nonclinical efficacy studies. In addition, solutions of MCAL-201 in castor oil which can be emulsified to micron sized liquid particles in aqueous buffers can be used to deliver MCAL-201 directly to the tear film lipid layer."}}, "note": "“Also recorded” adds a separate entry of the source. Where two headings read alike, the source gives them in different places.", "data": [{"compound": "CCCCCCCCCCCCCCCCCCCCOCC(CO)OC(=O)CCCCCCCCCCCCCCC", "note": "(racemic) [MCAL-201, 1-O-eicosanyl-2-palmitoyl-rac-glycerol]", "values": [{"measurement": "Ocular or systemic adverse events", "setting": "[1]; any time or concentration evaluated", "value": "no ocular or systemic adverse events"}, {"measurement": "Tolerability", "setting": "[1]; topical ocular 35 μL drop", "value": "well tolerated"}, {"measurement": "1,3-EPRG isomeric content (NMR)", "setting": "[2]; after jet mill micronization", "value": 1.15, "unit": "mol %"}, {"measurement": "Chemical stability (acyl migration of palmitoyl from 2 to 3 position)", "setting": "[2]; liquid solution phase", "value": "lacked long-term chemical stability"}, {"measurement": "Time for which isomeric stability was demonstrated", "setting": "[2]; micronized, in the suspension formulation at room temperature", "value": 6, "unit": "weeks"}, {"measurement": "Stability to the micronization process", "setting": "[2]; particles recovered from formulated drug by centrifugation and washing", "value": "chemical and isomeric stability"}, {"measurement": "1,3-EPRG isomeric content (NMR)", "setting": "[2]; solid micronized suspension stored at room temperature for 6 weeks", "value": 0.0991, "unit": "mol %"}, {"measurement": "Isomeric stability", "setting": "[2]; solid phase, compared with solution", "value": "far greater than in solution"}, {"measurement": "Effect on TBUT", "setting": "[3]", "value": "extended TBUT"}, {"measurement": "Hygroscopicity", "setting": "[4]", "value": "Low"}, {"measurement": "solubility", "setting": "[4]; castor oil, oil or lipid, read-out: Solubility in castor oil", "value": 25, "unit": "mg/mL"}, {"measurement": "solubility", "setting": "[4]; chloroform, organic solvent or mixture, read-out: Solubility in chloroform", "value": 40, "unit": "mg/mL"}, {"measurement": "Solubility in water", "setting": "[4]; water", "value": "Insoluble; also recorded: extreme insolubility"}]}]}
